Laboratory results taken from patent US20240327392A1, “HETEROCYCLOALKYL-SUBSTITUTED POLYHETEROAZOLE DERIVATIVES AS MEDICAMENTS FOR TREATING AND/OR PREVENTING RS VIRUS INFECTIONS” (ALBIUS SCIENCES ALPHA PRIVATE LIMITED, priority 2021, published 2024).

These molecules were tested on human RS virus A2 strain (assay: In vitro test for anti-RS virus proliferation inhibitory activity (quantitative RT-PCR of RS virus RNA copy number in infected Vero cells)). Conditions: 72 h; Vero cells infected with human RS virus A2 strain, 3 days of incubation, RS virus N gene RNA copy number by quantitative RT-PCR; read-out: Anti-RS virus Activity.
Assay type: cell-based
Method in brief: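 Vero cells infected with RSV A2 (1.7×10^4 TCID50/mL in inoculum mix) with compound in 10% FCS EMEM, 3 days at 37 °C, 5% CO2. Lysate viral N-gene RNA quantified by one-step SYBR qRT-PCR; copy number by comparative Ct relative to untreated infected cells.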
For CC(C)(C)OC(=O)N1CCC[C@H]1c1nc(CCCc2ccccc2)no1 [Compound 1-1, 3-(3-phenylpropyl)-5-[(2S)-1-tert-butoxycarbonylpyrrolidin-2-yl]-1,2,4-oxadiazole], the IC50 was over 50 µM. NC(=O)c1ccc2cc(C(=O)N3C[C@H](O)C[C@H]3c3nc(CCCc4ccccc4)no3)ccc2c1 [Compound 4-5] showed an IC50 of over 50 µM. With O=S(=O)(C1CCCCC1)N1CCC[C@H]1c1nc(CCCc2ccccc2)no1 [Compound 1B, 3-(3-phenylpropyl)-5-[(2S)-1-cyclohexylsulfonylpyrrolidin-2-yl]-1,2,4-oxadiazole] the IC50 was 10 to 50 µM.

Same assay, conditions: 72 h; Vero cells infected with human RS virus A2 strain, 3 days of incubation, RS virus RNA copy number by quantitative RT-PCR; read-out: Anti-RS virus Activity
O=S(=O)(c1ccc(F)cc1)N1CCC[C@H]1c1cn(Cc2ccccc2)nn1 [Compound 39AJ, (S)-1-Benzyl-4-(1-((4-fluorophenyl)sulfonyl)pyrrolidin-2-yl)-1H-1,2,3-triazole] was tested, and the IC50 was under 10 µM. CC(C)(C)OC(=O)N1C[C@@H](C#N)C[C@H]1c1nc(CCCc2ccccc2)no1 [Compound 41-1, Tert-butyl (2S,4S)-4-cyano-2-(3-(3-phenylpropyl)-1,2,4-oxadiazol-5-yl)pyrrolidine-1-carboxylate] showed an IC50 of 10 to 50 µM. CC(C)(C)OC(=O)N1C[C@H](c2ccccc2)C[C@H]1c1nc(CCCCc2ccccc2)no1 [Compound C4-7-1, Tert-butyl (2S,4S)-4-phenyl-2-(3-(4-phenylbutyl)-1,2,4-oxadiazol-5-yl)pyrrolidine-1-carboxylate] gave an IC50 of under 10 µM. Work on O=S(=O)(N1CCOCC1)N1C[C@H](c2ccccc2)C[C@H]1c1nc(CCCc2ccccc2)no1 [Compound 7AE, 4-(((2S,4S)-4-phenyl2-(3-(3-phenylpropyl)-1,2,4-oxadiazole-5-yl)pyrrolidin-1-yl)sulfonyl) morpholine] yielded an IC50 of 10 to 50 µM. O=C(NCc1noc([C@@H]2CCCCN2S(=O)(=O)C2CCCCC2)n1)c1cccc2ccccc12 [Compound 26B, (S)—N-((5-(1-(cyclohexylsulfonyl)piperidin-2-yl)-1,2,4-oxadiazol-3-yl)methyl)-1-naphthamide] was tested, and the IC50 was 10 to 50 µM. CS(=O)(=O)N1C[C@H](F)C[C@H]1c1nc(CCCc2ccccc2)no1 [Compound 8C, 3-(3-phenylpropyl)-5-[(2S,4R)-1-methanesulfonyl-4-fluoropyrrolidin-2-yl]-1,2,4-oxadiazole] gave an IC50 of over 50 µM. CN(C)c1cccc2c(S(=O)(=O)N3CC4(CC4)C[C@H]3c3nc(CCCc4ccccc4)no3)cccc12 [Compound 5AL, (S)-N,N-dimethyll-5-((6-(3-(3-phenylpropyl)-1,2,4-oxadiazole-5-yl)-5-azaspiro[2.4]heptan-5-yl)sulfonyl)naphthalen-1-amine] gave an IC50 of under 10 µM. For O=S(=O)(c1ccc(F)cc1)N1C[C@H](c2ccccc2)C[C@H]1c1nc(CCCc2ccccc2)no1 [Compound 7AJ], the IC50 was under 10 µM. Molecule CN(C)c1ccc(S(=O)(=O)N2C[C@H](F)C[C@H]2c2nc(CCCc3ccccc3)no2)cc1 [Compound 8AK, 4-(((2S,4R)-4-fluoro-2-(3-(3-phenylpropyl)-1,2,4-oxadiazole-5-yl)pyrrolidin-1-yl)sulfonyl)-N,N-dimethylaniline] has an IC50 of under 10 µM. O=S(=O)(N1CCCCC1)N1CC2(CC2)C[C@H]1c1nc(CCCc2ccccc2)no1 [Compound 5AD, (S)-3-(3-phenylpropyl)-5-(5-(piperidin-1-ylsulfonyl)-5-azaspiro[2.4]heptan-6-yl)-1,2,4-oxadiazole] showed an IC50 of 10 to 50 µM. Work on CC(C)(C)OC(=O)N1CCCC[C@H]1c1nnc(CCCc2ccccc2)[nH]1 [Compound 20-1, Tert-butyl (S)-2-(5-(3-phenylpropyl)-4H-1,2,4-triazol-3-yl) piperidine-1-carboxylate] yielded an IC50 of under 10 µM. For O=S(=O)(C1CCCCC1)N1CCCCC1c1ncc(-c2ccccc2)[nH]1 (stereo not shown) [Compound 40B], the IC50 was 10 to 50 µM. CC(C)[C@@H]1CC[C@@H](C)C[C@H]1OC(=O)N1CCC[C@H]1c1nc(CCCc2ccccc2)no1 [Compound 1N, (−)-menthyl (S)-2-(3-(3-phenylpropyl)-1,2,4-oxadiazol-5-yl) pyrrolidine-1-carboxylate] showed an IC50 of 10 to 50 µM. Molecule CC(C)CS(=O)(=O)N1[C@@H]2CC[C@@H](C2)[C@H]1c1nnc(CCc2ccncc2)[nH]1 [Compound 25A, (1R,3S,4S)-2-(isobutylsulfonyl)-3-(5-(2-(pyridin-4-yl)ethyl)-4H-1,2,4-triazol-3-yl)-2-azabicyclo[2.2.1]heptane] has an IC50 of 10 to 50 µM. Molecule CCN1CCCC[C@H]1c1nc(CCCc2ccccc2)no1 [Compound 2Z, (S)-5-(1-ethylpiperidin-2-yl)-3-(3-phenylpropyl)-1,2,4-oxadiazole] has an IC50 of 10 to 50 µM. With CC(C)CS(=O)(=O)N1CC(CC2CCC2)CC1c1nc(CCCc2ccccc2)no1 (stereo not shown) [Compound 6A, 3-(3-phenylpropyl)-5-(1-isobutylsulfonyl-4-cyclobutylmethylpyrrolidin-2-yl)-1,2,4-oxadiazole] the IC50 was under 10 µM. CC(C)(C)OC(=O)N1CC(CS(=O)(=O)N2CC(CC3CCC3)CC2c2nc(CCCc3ccccc3)no2)C1 (stereo not shown) [Compound 6AM, tert-buthyl 3-(((4-(cyclobuthylmethyl)-2-(3-(3-phenylpropyl)-1,2,4-oxadiazole-5-yl)pyrrolidin-1-yl)sulfonyl)methyl)azetidin-1-carboxylate] showed an IC50 of under 10 µM. With CS(=O)(=O)N1C[C@H]2CC[C@]1(c1nc(CCc3ccccc3)no1)CC2 [Compound 15C, 5-((1s,4s)-2-(methylsulfonyl)-2-azabicyclo[2.2.2]octan-1-yl)-3-phenethyl-1,2,4-oxadiazole] the IC50 was 10 to 50 µM. For O=S(=O)(c1ccc(F)cc1)N1CC(CC2CCC2)CC1c1nc(CCCc2ccccc2)no1 (stereo not shown) [Compound 6AJ, 5-(4-(cyclobuthylmethyl)-1-((4-fluorophenyl)sulfonyl)pyrrolidin-2-yl)-3-(3-phenylpropyl)-1,2,4-oxsdiazole], the IC50 was under 10 µM. In the case of CC(C)(C)OC(=O)N1C[C@H]2CC[C@]1(c1nc(CCc3ccncc3)no1)CC2 [Compound 13-1, Tert-butyl (1s,4s)-1-(3-(2-(pyridin-4-yl)ethyl)-1,2,4-oxadiazol-5-yl)-2-azabicyclo[2.2.2]octane-2-carboxylate], the IC50 is reported as 10 to 50 µM. CC(C)(C)OC(=O)N1C[C@@H](CC2CCC2)C[C@H]1c1nc(CCCc2ccccc2)no1 (racemic) [Compound 6-1, 3-(3-phenylpropyl)-5-(1-tert-butoxycarbonyl-4-cyclobutylmethylpyrrolidin-2-yl)-1,2,4-oxadiazole] gave an IC50 of under 10 µM. Molecule c1ccc(CCCc2noc([C@@H]3CCCCN3Cc3ccccc3)n2)cc1 [Compound 2AA, (S)-5-(1-benzylpiperidin-2-yl)-3-(3-phenylpropyl)-1,2,4-oxadiazole] has an IC50 of 10 to 50 µM. With N#C[C@H]1C[C@@H](c2nc(CCCc3ccccc3)no2)N(S(=O)(=O)c2ccc(F)cc2)C1 [Compound 41AJ, (3S,5S)-1-((4-fluorophenyl)sulfonyl)-5-(3-(3-phenylpropyl)-1,2,4-oxadiazol-5-yl)pyrrolidine-3-carbonitrile] the IC50 was 10 to 50 µM. Work on CN(C)c1cccc2c(S(=O)(=O)N3C[C@H](c4ccccc4)C[C@H]3c3nc(CCCc4ccccc4)no3)cccc12 [Compound 7AL, N,N-dimethyl-5-(((2S,4S)-4-phenyl2-(3-(3-phenylpropyl)-1,2,4-oxadiazole-5-yl)pyrrolidin-1-yl)sulfonyl)naphthalen-1-amine] yielded an IC50 of under 10 µM. Molecule CC(C)CC(=O)N1CCC[C@H]1c1nc(CCCc2ccccc2)no1 [Compound 1Q, (S)-3-Methyl-1-(2-(3-(3-phenylpropyl)-1,2,4-oxadiazol-5-yl)pyrrolidin-1-yl) butan-1-one] has an IC50 of under 10 µM. With Cc1oc([C@@H]2CCCCN2S(=O)(=O)C2CCCCC2)nc1C(=O)O [Compound 33B, (S)-2-(1-(Cyclohexylsulfonyl)piperidin-2-yl)-5-methyl oxazole-4-carboxylic acid] the IC50 was 10 to 50 µM. With CS(=O)(=O)N1CC(CC2CCC2)CC1c1nc(CCCc2ccccc2)no1 (stereo not shown) [Compound 6C, 3-(3-phenylpropyl)-5-(1-methanesulfonyl-4-cyclobutylmethylpyrrolidin-2-yl)-1,2,4-oxadiazole] the IC50 was under 10 µM. With O=S(=O)(N1CCCCC1)n1nc([C@H]2N[C@@H]3CC[C@H]2C3)nc1CCc1ccncc1 [25AD′] the IC50 was 10 to 50 µM. In the case of CC(C)CS(=O)(=O)N1CCC[C@H]1c1nc(CCc2ccccc2)no1 [Compound 9A, 3-(2-phenylethyl)-5-[(2S)-1-isobutylsulfonylpyrrolidin-2-yl]-1,2,4-oxadiazole], the IC50 is reported as over 50 µM. For CC(C)(C)OC(=O)N1CCC(CS(=O)(=O)N2CC(CC3CCC3)CC2c2nc(CCCc3ccccc3)no2)CC1 (stereo not shown) [Compound 6AN, tert-buthyl 4-(((4-(cyclobuthylmethyl)-2-(3-(3-phenylpropyl)-1,2,4-oxadiazole-5-yl)pyrrolidin-1-yl)sulfonyl)methyl)piperidin-1-carboxylate], the IC50 was 10 to 50 µM. In the case of O=S(=O)(C1CCCCC1)N1CC(c2ccccc2)C[C@H]1c1nc(CCCc2ccccc2)no1 (stereo in doubt) [Compound 7B, 3-(3-Phenylpropyl)-5-[(2S,4S)-1-cyclohexylsulfonyl-4-phenylpyrrolidin-2-yl]-1,2,4-oxadiazole], the IC50 is reported as under 10 µM. CC(C)(C)OC(=O)N1C[C@H](c2ccccc2)C[C@H]1c1nc(CCCc2ccccc2)no1 [Compound 7-1, 3-(3-phenylpropyl)-5-[(2S,4S)-1-tert-butoxycarbonyl-4-phenylpyrrolidin-2-yl]-1,2,4-oxadiazole] showed an IC50 of under 10 µM. COC(=O)c1nc([C@@H]2CCCCN2S(=O)(=O)C2CCCCC2)oc1C [Compound 32B, Methyl (S)-2-(1-(cyclohexylsulfonyl)piperidin-2-yl)-5-methyloxazole-4-carboxylate] showed an IC50 of 10 to 50 µM.

Same assay, conditions: Vero, 72 h, read-out: Anti-RS virus Activity
S=C(NCc1ccccc1)N1C[C@H](c2ccccc2)C[C@H]1c1nc(CCCc2ccccc2)no1 [Compound 7AR, (2S,4S)—N-Benzyl-4-phenyl-2-(3-(3-phenylpropyl)-1,2,4-oxadiazol-5-yl) pyrrolidine-1-carbothioamide] was tested, and the IC50 was 10 to 50 µM.
